Consider 22 molecules from US20250011300A1, “PIPERAZINYLSULFONYLARYL COMPOUNDS FOR TREATMENT OF BACTERIAL INFECTIONS” (Hoffmann-La Roche Inc., priority 2021, published 2025).

The test system of test [1] is K. pneumonia (ATCC 43816). Put plainly: Minimal Inhibitory Concentration (MIC) assay, K. pneumonia. Type of test: cell-based. Conditions: Klebsiella pneumoniae; K. pneumoniae ATCC43816, CAMHB, 20 hours at 35° C.; read-out: MIC K. pneumoniae ATCC43816. The protocol: (§1) Example 122: Minimal Inhibitory Concentration Protocol (MIC) Assay
(§2) The in vitro potency of compounds to inhibit E. coli (ATCC 25922) and K. pneumonia (ATCC 43816) growth was assessed by MIC (Minimal Inhibitory Concentration) assay. Samples were prepared from 10 mM DMSO stock solutions. After serial 2-fold dilution in DMSO in a master plate (Greiner, Cat No: 651201), 180 μL sterile distilled water was added to 20 μL each aliquot of the samples. Then 10 μL diluted compounds were transferred into a new assay plate (Costar, 3599).
(§3) The growth medium Cation-Adjusted Mueller Hinton Broth (CAMHB) was prepared by adding the 20 mg per liter CaCl2) and 20 mg per liter MgCl2 into the MHB medium (Jianglai Company, sterilized).
(§4) Vials of each of the test microorganisms were maintained frozen in the vapor phase of a liquid nitrogen freezer. The bacteria E. coli ATCC 25922 (KWIKSTIK, 0335K) and K. pneumonia ATCC 43816 were taken out from liquid nitrogen freezer, then thawed in room temperature, and diluted in the CAMHB medium to achieve a final inoculum of 5×10^5 CFU/mL. 90 μL CAMHB with bacteria was dispensed to the assay plate and pipetted 5 times.
(§5) Then the assay plates were incubated for 20 hours at 35° C. in ambient air. Following incubation, the MIC (μg/mL), the lowest concentration of drug that inhibits visible growth of the microorganism was read and recorded throw the microscope.

Test [2] has as its system E. coli (ATCC 25922). Put plainly: Minimal Inhibitory Concentration (MIC) assay, E. coli. The format is cell-based. Conditions: Escherichia coli, ATCC25922; E. coli ATCC 25922, CAMHB, 20 hours at 35° C.; read-out: MIC E. coli ATCC 25922. On the procedure:
as §1, §2, §3, §4, §5

Usually MIC stands for the least concentration at which growth counts as inhibited.

Values after ≈ are worked out from the molar mass of the structure shown.

As to `NC1CC(=O)N(c2ccc(S(=O)(=O)N3CCN(c4cc(C5(c6ccccc6)CC5)cc(Cl)n4)CC3)cc2)C1` (centres unmarked) [Example 75, 4-Amino-1-[4-[4-[6-chloro-4-(1-phenylcyclopropyl)-2-pyridyl]piperazin-1-yl]sulfonylphenyl]pyrrolidin-2-one], the MIC in test [1] and in test [2] was 1.22 µg/mL (≈ 2.21 µM) each time.
In the case of `NC1CC(=O)N(c2ccc(S(=O)(=O)N3CCN(c4nc(Cl)cc(C(F)(F)c5ccccc5)n4)CC3)cc2)C1` (centres unmarked) [Example 78, 4-Amino-1-[4-[4-[4-chloro-6-[difluoro(phenyl)methyl]pyrimidin-2-yl]piperazin-1-yl]sulfonylphenyl]pyrrolidin-2-one], the MIC in test [1] was found to be 1.76 µg/mL (≈ 3.13 µM); in test [2], 0.22 µg/mL (≈ 0.391 µM).
For `N[C@@H]1CC(=O)N(c2ccc(S(=O)(=O)N3CCN(c4cc(C(F)(F)C5C[C@H]5CO)cc(Cl)n4)CC3)cc2)C1` (stereo partly drawn) [Example 117, (4R)-4-amino-1-[4-[4-[6-chloro-4-[trans-difluoro-[2-(hydroxymethyl)cyclopropyl]methyl]-2-pyridyl]piperazin-1-yl]sulfonylphenyl]pyrrolidin-2-one], in that order: 1.9 µg/mL (≈ 3.42 µM) and 0.93 µg/mL (≈ 1.67 µM).
For `Cc1cc(C(F)(F)F)nc(N2CCN(S(=O)(=O)c3ccc(N4CC(N)CC4=O)cc3)CC2)n1` (centres unmarked) [Example 65, 4-Amino-1-[4-[4-[4-methyl-6-(trifluoromethyl)pyrimidin-2-yl]piperazin-1-yl]sulfonylphenyl]pyrrolidin-2-one], in that order: 7.48 µg/mL (≈ 15.4 µM) and 3.74 µg/mL (≈ 7.72 µM).
For `NC1CC(=O)N(c2ccc(S(=O)(=O)N3CCN(c4cc(Cc5ccccc5)cc(Cl)n4)CC3)cc2)C1` (centres unmarked) [Example 74, 4-Amino-1-[4-[4-(4-benzyl-6-chloro-2-pyridyl)piperazin-1-yl]sulfonylphenyl]pyrrolidin-2-one], in that order: 1.18 µg/mL (≈ 2.24 µM) and 1.18 µg/mL (≈ 2.24 µM).
Consider `Cc1cnc(C(F)(F)c2cc(Cl)nc(N3CCN(S(=O)(=O)c4ccc(N5C[C@H](N)CC5=O)cc4)CC3)c2)cn1` [Example 111, (4R)-4-amino-1-[4-[4-[6-chloro-4-[difluoro-(5-methylpyrazin-2-yl)methyl]-2-pyridyl]piperazin-1-yl]sulfonylphenyl]pyrrolidin-2-one], for which the values for the minimum inhibitory concentration (MIC) in test [1] and in test [2] were 1.8 µg/mL (≈ 3.11 µM) and 0.9 µg/mL (≈ 1.56 µM), respectively.
For `C[C@H]1CNCC(C(F)(F)c2cc(Cl)nc(N3CCN(S(=O)(=O)c4ccc(N5C[C@H](N)CC5=O)cc4)CC3)c2)O1` (stereo partly drawn) [Example 114, (4R)-4-amino-1-[4-[4-[6-chloro-4-[difluoro-[cis-6-methylmorpholin-2-yl]methyl]-2-pyridyl]piperazin-1-yl]sulfonylphenyl]pyrrolidin-2-one], in that order: 1.8 µg/mL (≈ 3.08 µM) and 0.91 µg/mL (≈ 1.56 µM).
For `Cc1cncc(C(F)(F)c2cc(Cl)nc(N3CCN(S(=O)(=O)c4ccc(N5C[C@H](N)CC5=O)cc4)CC3)c2)n1` [Example 112, (4R)-4-amino-1-[4-[4-[6-chloro-4-[difluoro-(6-methylpyrazin-2-yl)methyl]-2-pyridyl]piperazin-1-yl]sulfonylphenyl]pyrrolidin-2-one], in that order: 0.45 µg/mL (≈ 0.778 µM) and 0.45 µg/mL (≈ 0.778 µM).
The corresponding values for `O=C1O[C@@H]2[C@@H](O)[C@H](CO)[C@@H](O)O[C@@H]2N1c1ccc(S(=O)(=O)N2CCN(c3cc(C(F)(F)F)cc(Cl)n3)CC2)cc1` [Example 23, (3aS,5S,6S,7S,7aR)-3-[4-[4-[6-chloro-4-(trifluoromethyl)-2-pyridyl]piperazin-1-yl]sulfonylphenyl]-5,7-dihydroxy-6-(hydroxymethyl)-5,6,7,7a-tetrahydro-3aH-pyrano[2,3-d]oxazol-2-one] are 60.9 µg/mL (≈ 100 µM) and 30.4 µg/mL (≈ 50 µM).
On to `O=C1CC(N2CCNCC2)CN1c1ccc(S(=O)(=O)N2CCN(c3cc(C(F)(F)F)cc(Cl)n3)CC2)cc1` (centres unmarked) [Example 47, 1-[4-[4-[6-Chloro-4-(trifluoromethyl)-2-pyridyl]piperazin-1-yl]sulfonylphenyl]-4-piperazin-1-yl-pyrrolidin-2-one], for which the minimum inhibitory concentration (MIC) in test [1] came out at 5.71 µg/mL (≈ 9.96 µM); in test [2] it was 1.91 µg/mL (≈ 3.33 µM).
For `CC1COC(C(F)(F)c2cc(Cl)nc(N3CCN(S(=O)(=O)c4ccc(N5C[C@H](N)CC5=O)cc4)CC3)c2)CN1` (some centres unmarked) [Example 115], in that order: 1.9 µg/mL (≈ 3.25 µM) and 0.97 µg/mL (≈ 1.66 µM).
For `NCC1CCC(=O)N1c1ccc(S(=O)(=O)N2CCN(c3cc(C(F)(F)c4ccccc4)cc(Cl)n3)CC2)cc1` (centres unmarked) [Example 86, 5-(Aminomethyl)-1-[4-[4-[6-chloro-4-[difluoro(phenyl)methyl]-2-pyridyl]piperazin-1-yl]sulfonylphenyl]pyrrolidin-2-one], in that order: 1.26 µg/mL (≈ 2.19 µM) and 1.26 µg/mL (≈ 2.19 µM).
Regarding `NC1CCN(C2CC(=O)N(c3ccc(S(=O)(=O)N4CCN(c5cc(C(F)(F)F)cc(Cl)n5)CC4)cc3)C2)C1` (centres unmarked) [Example 50, 4-(3-Aminopyrrolidin-1-yl)-1-[4-[4-[6-chloro-4-(trifluoromethyl)-2-pyridyl]piperazin-1-yl]sulfonylphenyl]pyrrolidin-2-one], the MIC in test [1] was 3.81 µg/mL (≈ 6.65 µM); in test [2], 1.91 µg/mL (≈ 3.33 µM).
The corresponding values for `[2H]C([2H])([2H])c1cc(C(F)(F)F)nc(N2CCN(S(=O)(=O)c3ccc(N4CC(N)CC4=O)cc3)CC2)n1` (centres unmarked) [Example 66, 4-Amino-1-[4-[4-[4-(trideuteriomethyl)-6-(trifluoromethyl)pyrimidin-2-yl]piperazin-1-yl]sulfonylphenyl]pyrrolidin-2-one] are 7.52 µg/mL (≈ 15.4 µM) and 3.76 µg/mL (≈ 7.71 µM).
On to `N[C@@H]1CC(=O)N(c2ccc(S(=O)(=O)N3CCN(c4cc(C(F)(F)C56CNC[C@H]5C6)cc(Cl)n4)CC3)cc2)C1` (stereo partly drawn) [Example 116, (4R)-4-amino-1-[4-[4-[4-[[cis-3-azabicyclo[3.1.0]hexan-1-yl]-difluoro-methyl]-6-chloro-2-pyridyl]piperazin-1-yl]sulfonylphenyl]pyrrolidin-2-one], for which the MIC was found to be 0.94 µg/mL (≈ 1.66 µM) in test [1] and 0.47 µg/mL (≈ 0.829 µM) in test [2].
For `N[C@@H]1CC(=O)N(c2ccc(S(=O)(=O)N3CCN(c4cc(C(F)(F)[C@H]5C[C@H](O)C5)cc(Cl)n4)CC3)cc2)C1` [Example 119, (4R)-4-amino-1-[4-[4-[6-chloro-4-[trans-difluoro-(3-hydroxycyclobutyl)methyl]-2-pyridyl]piperazin-1-yl]sulfonylphenyl]pyrrolidin-2-one], in that order: 0.46 µg/mL (≈ 0.827 µM) and 0.46 µg/mL (≈ 0.827 µM).
For `NC1CC(=O)N(c2ccc(S(=O)(=O)N3CCN(c4nc(C5CC5)cc(C(F)(F)c5ccccc5)n4)CC3)cc2)C1` (centres unmarked) [Example 80, 4-Amino-1-[4-[4-[4-cyclopropyl-6-[difluoro(phenyl)methyl]pyrimidin-2-yl]piperazin-1-yl]sulfonylphenyl]pyrrolidin-2-one], in that order: > 28.4 µg/mL and > 28.4 µg/mL.
With `NC1CC(=O)N(c2ccc(S(=O)(=O)N3CCN(c4cc(C(F)(F)F)cc(Cl)n4)CC3)cn2)C1` (centres unmarked) [Example 62, 4-Amino-1-[5-[4-[6-chloro-4-(trifluoromethyl)-2-pyridyl]piperazin-1-yl]sulfonyl-2-pyridyl]pyrrolidin-2-one], the MIC in test [1] is 15.5 µg/mL (≈ 30.6 µM); in test [2], 7.74 µg/mL (≈ 15.3 µM).
For `Cc1nc(C(F)(F)c2cc(Cl)nc(N3CCN(S(=O)(=O)c4ccc(N5C[C@H](N)CC5=O)cc4)CC3)c2)cnc1Cl` [Example 113, (4R)-4-amino-1-[4-[4-[6-chloro-4-[(5-chloro-6-methyl-pyrazin-2-yl)-difluoro-methyl]-2-pyridyl]piperazin-1-yl]sulfonylphenyl]pyrrolidin-2-one], in that order: 0.51 µg/mL (≈ 0.833 µM) and 0.26 µg/mL (≈ 0.424 µM).
The corresponding values for `COc1nc(N2CCN(S(=O)(=O)c3ccc(N4CC(N)CC4=O)cc3)CC2)cc(C(F)(F)c2ccccc2)n1` (centres unmarked) [Example 81, 4-Amino-1-[4-[4-[6-[difluoro(phenyl)methyl]-2-methoxy-pyrimidin-4-yl]piperazin-1-yl]sulfonylphenyl]pyrrolidin-2-one] are 6.98 µg/mL (≈ 12.5 µM) and 4.36 µg/mL (≈ 7.81 µM).
The corresponding values for `NC[C@H]1CC[C@H](C(F)(F)c2cc(Cl)nc(N3CCN(S(=O)(=O)c4ccc(N5C[C@H](N)CC5=O)cc4)CC3)c2)CC1` [Example 118, (4R)-4-amino-1-[4-[4-[4-[[trans-4-(aminomethyl)cyclohexyl]-difluoro-methyl]-6-chloro-2-pyridyl]piperazin-1-yl]sulfonylphenyl]pyrrolidin-2-one] are 0.99 µg/mL (≈ 1.66 µM) and 0.5 µg/mL (≈ 0.837 µM).
As for `O=C1CC2(CNCCN2)CN1c1ccc(S(=O)(=O)N2CCN(c3cc(C(F)(F)c4ccccc4)cc(Cl)n3)CC2)cc1` (centres unmarked) [Example 85, 2-[4-[4-[6-Chloro-4-[difluoro(phenyl)methyl]-2-pyridyl]piperazin-1-yl]sulfonylphenyl]-2,6,9-triazaspiro[4.5]decan-3-one], the MIC in test [1] and in test [2] was 2.29 µg/mL (≈ 3.71 µM) throughout.
